Test results from paper PMC4914113, “Another look at the mechanism involving trimeric dUTPases in Staphylococcus aureus pathogenicity island induction involves novel players in the party” (Nucleic Acids Research, 2016).

What was measured:
Dutϕ11 = biological target: T1, Dutϕ11 (Staphylococcus phage phi 11, UniProt Q8SDV3); assay: biolayer interferometry, effect on Stl binding; settings: 0.5 mM dUPNPP; SaPIbov1 Stl analyte; pH 7.5, 5 mM MgCl2; competes with Stl
T1 construct: His6-tagged from pET-28a, E. coli BL21(DE3); trimeric Dut

Dut80α [1] = biological target: T2, Dut80α (Dubowvirus dv80alpha, UniProt A4ZF98); assay: biolayer interferometry, effect on Stl binding; settings: 0.5 mM dUPNPP; SaPIbov1 Stl analyte; pH 7.5, 5 mM MgCl2; competes with Stl
T2 construct: His6-tagged from pET-28a, E. coli BL21(DE3); homotrimer; models cover residues 2-168 (dUMP) and 2-170 (G164S)

[2] = biological target: Dut80α^G164S (Staphylococcus aureus phage 80α); assay: crystal structure; Dut80α^WT with dUMP (5CCO) and Dut80α^G164S with dUPNPP-Mg (5CCT); space group P2_(1)3, one Dut molecule in the final model; trimers shown in Figure 3
[3] = biological target: Dut80α^WT, wild-type dUTPase of phage 80α (Staphylococcus aureus phage 80α); assay: as above
Dut80α [4] = biological target: T2, Dut80α; assay: X-ray crystallography; type: binding; settings: 2.33 Å; no nucleotide added to crystallisation; active site

## O=c1ccn([C@H]2C[C@H](O)[C@@H](COP(=O)(O)NP(=O)(O)OP(=O)(O)O)O2)c(=O)[nH]1 [dUPNPP, 2-Deoxyuridine-5-[(α,β)-imido]triphosphate]
Dutϕ11
  biolayer interferometry, effect on Stl binding: dUPNPP decreased the affinity of the Stl:Dut80α complex by about one order
Dut80α [1]
  biolayer interferometry, effect on Stl binding: presence of the dUPNPP severely affects the formation of the Stl:Dut80α complex

## Dut80α^G164S (enzyme)
[2]
  stoichiometry N: 3

## Dut80α^WT, wild-type dUTPase of phage 80α (enzyme)
[3]
  stoichiometry N: 3

## O=c1ccn([C@H]2C[C@H](O)[C@@H](COP(=O)(O)O)O2)c(=O)[nH]1 [dUMP]
Dut80α [4]
  X-ray crystallography: structure of the Dut80α^WT bound to the dUMP showed that motif V was ordered
